For data set [1] the following is noted: for effect on metoclopramide mass flux (in words) / effect on skin resistance / resistivity (in words): compared with control without enhancer; for Normalized Cell Voltage (after 5 hrs) / Normalized Metoclopramide Mass Flux (after 5 hrs): metoclopramide HCl 100 mg/ml, 100 μA/cm^2, 32° C.; for enhancer performance (in words): metoclopramide electrotransport.
A short description of data set [2]: Electrotransport of sodium ketoprofen with enhancer (Example 5). The conditions noted are these: for effect of 20% ethanol solvent on enhancer performance (in words) / effect on ketoprofen mass flux (in words) / effect on skin conductivity (in words): 100 mM ketoprofen; for effect of 20% ethanol solvent on enhancer performance (in words): 20 wt % ethanol/water; for effect on ketoprofen mass flux (in words) / effect on skin conductivity (in words): water alone. It counts as in vitro ADME, human. The method, then: (§1) Each floating epidermis was stretched essentially flat.
Sodium ketoprofen in aqueous solution forms an univalent anionic anti-inflammatory agent. The electrotransport delivery of 100 mM ketoprofen in the presence of cationic and non-ionic surfactants was tested under the conditions described in Example 1. The enhancers used were laurylamine and dimethyl lauramide. Two sets of tests were conducted. The first in aqueous solution, and the second in 20 wt % ethanol/water solution.

For data set [3] the following is noted: hydrophile-lipophile balance of the enhancer; cited from earlier work.
The nature of data set [4]: Micelle formation of tetracaine. Type of data set: physicochemical. The method, then: Tetracaine is a much less electrophilic molecule than metoclopramide since it is positively charged at its tertiary amine group, but the rest of the molecule is very hydrophobic. Concentrations of tetracaine higher than 20 mg/ml (75 mM) lead to the formation of micelles, due to the highly surfactant nature of the drug. Lower concentrations of tetracaine may lead to a better showing of the effect of the enhancer.

For data set [5] the following is noted: for Normalized Cell Voltage (after 5 hrs): relative to no ethanol (1.00). The method, then:
as §1
The prior art teaches that ethanol can be used to enhance both passive and electrically-assisted transdermal drug delivery. […] The agent utilized, metoclopramide HCl, was placed in the donor compartment at about 100 mg metoclopramide/ml, and Dulbecco's phosphate buffered saline (pH 7) was placed in the receptor compartment. The system was maintained at 32° C. and a constant electric current of 100 μA/cm^2 was applied throughout the procedure.

For data set [6] the following is noted: tetracaine; electrotransport pretreatment with the enhancer.
Description: Solutions of the drug to be transported through the skin disks 42, and each of the electrotransport enhancers to be tested were placed at different times in the anodic donor compartment 44. Dulbecco's phosphate buffered saline (approximately 0.1 5N NaCl, with minor amounts of other ions, pH 7.0) was placed in the cathodic receptor compartment 46. The skin resistance was calculated from the voltages applied by the galvanostat according to Ohm's law:
The electrotransport of tetracaine was also conducted with surfactant flux enhancers, such as decyl methyl sulfoxide.
A short description of data set [7]: Electrotransport of di-sodium cromolyn with enhancer (Example 4). Particulars: concentration not given in b26; for lowering of skin resistivity: cromolyn donor, dodecylpyrrolidone 100 mM; for increase of cromolyn flux: dodecylpyrrolidone 100 mM in donor. It counts as in vitro ADME, human.
Excerpt: as §1
Di-sodium cromolyn, when in aqueous solution, forms a divalent anion. The experimental conditions were as described in Example 1, except the cromolyn donor solution was placed in the cathodic compartment 46 and the Dulbecco's phosphate buffered saline receptor solution was placed in the anodic compartment 44; and the stratum corneum layer of skin disk 42 was mounted to face the cathodic compartment 46.
Dodecylpyrrolidone, when added to the donor solution, at a concentration of 100 mM, increased cromolyn flux by 50 to 100% and lowered skin resistivity by 30 to 70%.

Setting [8] is: relative to control without enhancer (1.00), enhancer 10 mM.
The mark [9] stands for this setting: relative to control (1.00), dodecylpyrrolidone 100 mM.

“And” between values parts separate entries of the source, which are not always exact repeats. Equal entries are not always repeated. Structures can show the parent of a compound that is named as a salt. Where two headings read alike, the source gives them in different places.

For the compound `CCCCCCCCCCCCN` [Lauryl amine], the “effect on metoclopramide mass flux (in words)” value in data set [1] is “significantly decreased the flux”. Also, in data set [1] (setting [8]), the “Normalized Cell Voltage (after 5 hrs)” value was “.22” and the “Normalized Metoclopramide Mass Flux (after 5 hrs)” value is recorded as 0.136. Also, in data set [2], the “effect of 20% ethanol solvent on enhancer performance (in words)” value is “improved the performance of both enhancers”; the “effect on ketoprofen mass flux (in words)” value is reported as “increased mass flux”; the “effect on skin conductivity (in words)” value is “increased mass flux and skin conductivity”. In addition, the “HLB No.” value in data set [3] is recorded as 11.
With “lauramphocarboxy propionate [Lauramphocarboxypropionate, reference compound]”, the “effect on skin resistance / resistivity (in words)” value in data set [1] (metoclopramide HCl donor) is “did not appear to affect”. Besides, the “Normalized Cell Voltage (after 5 hrs)” value in data set [1] (setting [8]) was “.93”. In data set [3], the “HLB No.” value was 54.
In the case of `CCCCNc1ccc(C(=O)OCCN(C)C)cc1` [tetracaine HCl], the “concentration leading to the formation of micelles” value in data set [4] is “higher than 20 mg/ml and > 75 mM”.
For the compound `CCCCCCCCCCCCOS(=O)(=O)[O-].[Na+]` [Sodium lauryl sulfate], in data set [1], the “effect on metoclopramide mass flux (in words)” value is “enhanced mass flux” and the “enhancer performance (in words)” value is “superior characteristics”. In data set [1] (setting [8]), the “Normalized Cell Voltage (after 5 hrs)” value is listed as “.76” and the “Normalized Metoclopramide Mass Flux (after 5 hrs)” value is recorded as 1.64. Moreover, the “HLB No.” value in data set [3] is listed as 40.
Turning to `CCCCCCCCCCCC(=O)N(C)C` [Dimethyl lauramide], in data set [1], the “effect on metoclopramide mass flux (in words)” value is on record as “almost doubling of the amount of the drug delivered”. Besides, in data set [1] (metoclopramide HCl donor, dimethyl lauramide added), the “skin resistance relative to control” value is “about one-half that of the control”. For the same compound, in data set [1] (setting [8]), the “Normalized Cell Voltage (after 5 hrs)” value is listed as “.45” and the “Normalized Metoclopramide Mass Flux (after 5 hrs)” value was 1.87. The “Normalized Cell Voltage (after 5 hrs)” value in data set [1] (relative to control without enhancer (1.00), enhancer 10 mM, listed as dimethyl lauramide) is 0.45. Besides, in data set [2], the “effect of 20% ethanol solvent on enhancer performance (in words)” value was “improved the performance of both enhancers”; the “effect on ketoprofen mass flux (in words)” value is recorded as “increased mass flux”; the “effect on skin conductivity (in words)” value is “increased mass flux and skin conductivity”. For the same compound, the “effect on ketoprofen flux and conductivity (in words)” value in data set [2] (dimethyl lauramide added to ketoprofen, general description) was “increase in both flux and conductivity”. In addition, in data set [3], the “HLB No.” value is on record as 8.
For the compound `CCO` [Ethanol, ethanol], the “effect on mass flux of metoclopramide (in words)” value in data set [5] was “decreased the mass flux of metoclopramide”. In addition, the “effect on skin conductivity (in words)” value in data set [5] (10 to 30 wt % ethanol) was “decreased the mass flux of metoclopramide and the skin conductivity”. Also, the “Normalized Cell Voltage (after 5 hrs)” value in data set [5] (ethanol 10 wt %) was found to be 0.82; in data set [5] (ethanol 20 wt %) it was 0.70; in data set [5] (ethanol 30 wt %), 0.78.
As for `CCCCCCCCCCCCOC(=O)C(C)O` (stereo not shown) [Lauryl lactate, reference compound], the “effect on skin resistance / resistivity (in words)” value in data set [1] (metoclopramide HCl donor) is given as “reduced skin resistivity”. Further, in data set [1] (setting [8]), the “Normalized Cell Voltage (after 5 hrs)” value is reported as “.92”. Besides, the “HLB No.” value in data set [3] is given as 4.7.
Consider `CCCCCCCCCC[S+](C)[O-]` (stereo not shown) [n-Decyl methyl sulfoxide], for which the “Normalized Cell Voltage (after 5 hrs)” value in data set [1] (setting [8]) is on record as “.44”. In addition, the “decrease of cell voltage (in words)” value in data set [6] is recorded as “highly beneficial”. The “HLB No.” value in data set [3] is given as 32.
Take “Sorbitan monolaurate [reference compound]”: the “effect on skin resistance / resistivity (in words)” value in data set [1] (metoclopramide HCl donor) is listed as “fail to have a significant effect”. In data set [1] (setting [8]), the “Normalized Cell Voltage (after 5 hrs)” value is recorded as “.98”. Further, the “HLB No.” value in data set [3] is recorded as 8.6.
Turning to `CCCCCCCCCCCCN1CCCC1=O` [Dodecyl pyrrolidone], in data set [7] (listed as Dodecylpyrrolidone), the “lowering of skin resistivity” value is on record as 30 to 70% and the “increase of cromolyn flux” value was in the range of 50 to 100%. Further, in data set [7] (listed as dodecyl pyrrolidone), the “lowering of skin resistivity” value is listed as “more than 30%” and the “increase of cromolyn flux” value is “more than 50%”. For the same compound, in data set [1] (listed as dodecyl pyrrolidone), the “enhancer performance (in words)” value is “superior characteristics”. In addition, the “enhancer performance (in words)” value in data set [1] (listed as dodecylpyrrolidone) was “very effective enhancers”. For the same compound, in data set [1] (setting [9]), the “Normalized Cell Voltage (after 5 hrs)” value was “.35” and the “Normalized Metoclopramide Mass Flux (after 5 hrs)” value was found to be 1.68. Further, the “HLB No.” value in data set [3] was 8.
